For 40 compounds, IC50 and inhibition in vivo results are on record in ChEMBL document CHEMBL5316293, “Novel Small-Molecule PD-L1 Inhibitor Induces PD-L1 Internalization and Optimizes the Immune Microenvironment” (J Med Chem, 2023).

As a reminder, the IC50 is the concentration at which inhibition is half-maximal. The low end stands for higher potency, the high end for lower potency.

The structures appear in SMILES notation.

Assay [1] deals with Programmed cell death protein 1/Programmed cell death 1 ligand 1 (Homo sapiens, UniProt Q9NZQ7). Briefly: Inhibition of europium-labeled PD-1/biotinylated PD-L1 interaction (unknown origin) preincubated for 15 mins with PD-L1 followed by PD-1 addition and measured after 90 mins by TR-FRET assay. It counts as protein-complex assay. (In TR-FRET formats the signal depends on donor and acceptor labels being close together.)
Programmed cell death protein 1/Programmed cell death 1 ligand 1, sequence (Q15116 whole entry): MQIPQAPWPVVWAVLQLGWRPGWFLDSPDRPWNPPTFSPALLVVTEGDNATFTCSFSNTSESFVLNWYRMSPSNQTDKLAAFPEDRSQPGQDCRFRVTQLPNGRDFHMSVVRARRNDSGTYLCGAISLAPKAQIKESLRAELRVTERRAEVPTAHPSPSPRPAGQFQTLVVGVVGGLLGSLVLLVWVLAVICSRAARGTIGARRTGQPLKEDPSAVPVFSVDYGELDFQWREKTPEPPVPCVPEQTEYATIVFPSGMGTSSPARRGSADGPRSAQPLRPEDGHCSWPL
Programmed cell death protein 1/Programmed cell death 1 ligand 1, sequence (Q9NZQ7 whole entry): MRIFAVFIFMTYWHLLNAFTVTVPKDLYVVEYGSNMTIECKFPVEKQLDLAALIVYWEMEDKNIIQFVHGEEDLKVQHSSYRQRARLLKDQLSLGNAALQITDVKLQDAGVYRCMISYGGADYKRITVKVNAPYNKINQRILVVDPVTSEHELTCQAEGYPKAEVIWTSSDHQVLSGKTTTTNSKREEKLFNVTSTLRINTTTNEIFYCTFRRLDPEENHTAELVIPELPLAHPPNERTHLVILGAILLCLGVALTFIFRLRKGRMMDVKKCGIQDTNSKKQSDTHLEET

A short description of assay [2]: Antitumor activity against humanized mouse LLC-hPD-L1 cells implanted in hPD-1 knockin C57BL/6 mouse assessed as tumor growth inhibition at 10 mg/kg, ip administered for 12 days starting from day 7 post tumor implantation and measured every 2 days relative to control. It counts as functional. The following applies: LLC-hPD-L1, 288 h, time 12 day, read-out: TGI.

Compound `Cc1c(CN2C(=O)c3ccc(CNCCO)cc3C2=O)cccc1-c1ccccc1` returned an IC50 in assay [1] of 3840 nM.
On the same count and under the same terms, for `Cc1c(-c2ccccc2)cccc1N1C(=O)c2ccc(CN[C@@H](CO)C(=O)O)cc2C1=O` the value was 156 nM.
Still for that read-out and setting: for `Cc1c(-c2ccccc2)cccc1N1C(=O)c2ccc(OCc3ccccc3)cc2C1=O` the value was > 10000 nM; for `Cc1c(-c2ccccc2)cccc1N1C(=O)c2ccc(CNCCN)cc2C1=O`, 912 nM.
In assay [1], `Cc1c(-c2ccccc2)cccc1N1C(=O)c2ccc(CNC3CCOCC3)cc2C1=O` displayed an IC50 of 683 nM.
`Cc1c(-c2ccccc2)cccc1N1C(=O)c2ccc(CN3CCC[C@H]3C(=O)O)cc2C1=O`: in assay [1], the concentration for half-maximal inhibition (IC50) came out at 1420 nM.
The same measure, in the same setting: for `COc1cc2c(cc1CNCC(=O)O)C(=O)N(c1cccc(-c3ccccc3)c1C)C2=O` the value was 35.9 nM; for `Cc1c(-c2ccccc2)cccc1N1C(=O)c2ccc(C(=O)NCCO)cc2C1=O`, 1890 nM.
On the same count and under the same terms, the same measure for `Cc1c(-c2ccccc2)cccc1N1C(=O)c2ccc(CN3CCOCC3)cc2C1=O`: 2520 nM; for `COc1cc2c(cc1CN[C@@H](CO)C(=O)OC(C)(C)C)C(=O)N(c1cccc(-c3ccccc3)c1C)C2=O`: 296 nM; for `Cc1c(-c2ccccc2)cccc1N1C(=O)c2ccc(OCc3cccc(C#N)c3)cc2C1=O`: > 10000 nM.
Same read-out and setting: the same measure for `CC(=O)NCCNCc1ccc2c(c1)C(=O)N(c1cccc(-c3ccccc3)c1C)C2=O`: 590 nM; for `COc1cc2c(cc1CNCCO)C(=O)N(c1cccc(-c3ccccc3)c1C)C2=O`: 15.6 nM; for `COc1cc2c(cc1CN[C@@H](C)C(=O)O)C(=O)N(c1cccc(-c3ccccc3)c1C)C2=O`: 16.9 nM.
`Cc1c(-c2ccccc2)cccc1N1C(=O)c2ccc(CN3CCC[C@H]3C(N)=O)cc2C1=O` had an IC50 in assay [1] of 2760 nM.
On the same count and under the same terms, for `N#Cc1c(-c2ccccc2)cccc1N1C(=O)c2ccc(C(=O)NCCO)cc2C1=O` the value was 3670 nM.
Still for that read-out and setting: for `Cc1c(-c2ccccc2)cccc1N1C(=O)c2cc(Br)c(CN3CCCC[C@H]3C(=O)O)cc2C1=O` the value was > 10000 nM; for `Cc1c(-c2ccccc2)cccc1N1C(=O)c2ccc(CN3CCCC[C@H]3C(=O)O)cc2C1=O`, 2110 nM; for `N#Cc1cccc(COc2ccc3c(c2)C(=O)N(c2cccc(-c4ccccc4)c2C#N)C3=O)c1`, 395 nM.
For the compound `Cc1c(CN2C(=O)c3ccc(CN4CCCC[C@H]4C(=O)O)cc3C2=O)cccc1-c1ccccc1`, the half-inhibitory concentration (IC50) in assay [1] turned out to be 4630 nM.
The same measure, in the same setting: the same measure for `Cc1c(-c2ccccc2)cccc1N1C(=O)c2ccc(CNCCO)cc2C1=O`: 342 nM; for `CC(=O)NCCNCc1ccc2c(c1)C(=O)N(Cc1cccc(-c3ccccc3)c1C)C2=O`: 5410 nM; for `Cc1c(-c2ccccc2)cccc1N1C(=O)c2ccc(CNCCNS(C)(=O)=O)cc2C1=O`: 968 nM.
Regarding `N#Cc1c(-c2ccccc2)cccc1N1C(=O)c2ccc(C(=O)N3CCOCC3)cc2C1=O`, 6690 nM corresponded to half-maximal inhibition in assay [1] (IC50).
Turning to `Cc1c(-c2ccccc2)cccc1N1C(=O)c2cc(Br)c(CN3CCOCC3)cc2C1=O`, the IC50 in assay [1] was > 10000 nM.
In assay [1], `Cc1c(-c2ccccc2)cccc1N1C(=O)c2ccc(CN(C)CCO)cc2C1=O` yielded a half-maximal inhibitory concentration (IC50) of 917 nM.
On the same count and under the same terms, the same measure for `Cc1c(-c2ccccc2)cccc1N1C(=O)c2ccc(CNCCNC(=O)OC(C)(C)C)cc2C1=O`: 2400 nM; for `CC(=O)COc1ccc2c(c1)C(=O)N(c1cccc(-c3ccccc3)c1C#N)C2=O`: 249 nM; for `COc1cc2c(cc1CNCCNC(C)=O)C(=O)N(c1cccc(-c3ccccc3)c1C)C2=O`: 46.2 nM.
With `N#Cc1c(-c2ccc3c(c2)OCCO3)cccc1N1C(=O)c2ccc(C(=O)NCCO)cc2C1=O`, it took 1170 nM to reach half-maximal inhibition in assay [1] (IC50).
Still for that read-out and setting: the same measure for `Cc1c(-c2ccccc2)cccc1N1C(=O)c2ccc(C(=O)N3CCOCC3)cc2C1=O`: 1950 nM.
For `Cc1c(-c2ccc3c(c2)OCCO3)cccc1N1C(=O)c2ccc(C(=O)NCCO)cc2C1=O`, the IC50 in assay [1] was 745 nM. This IC50 is about 2.6-fold lower than that of the compound before.
Same read-out and setting: for `CCOC(=O)[C@H](CO)NCc1ccc2c(c1)C(=O)N(c1cccc(-c3ccccc3)c1C)C2=O` the value was 2380 nM; for `N#Cc1ccc(COc2ccc3c(c2)C(=O)N(c2cccc(-c4ccccc4)c2C#N)C3=O)cc1`, > 10000 nM.
In the case of `Cc1c(-c2ccccc2)cccc1N1C(=O)c2ccc(C(=O)N3CCN(C(C)C)CC3)cc2C1=O`, in assay [1], the IC50 was determined as 5130 nM.
The compound `CC(=O)COc1ccc2c(c1)C(=O)N(c1cccc(-c3ccccc3)c1C)C2=O` returned an IC50 in assay [1] of 1060 nM.
As for `COc1cc2c(cc1CN1CCC[C@H]1C(=O)O)C(=O)N(c1cccc(-c3ccccc3)c1C)C2=O`, the IC50 in assay [1] came to 139 nM.
In the case of `Cc1c(-c2ccccc2)cccc1N1C(=O)c2ccc(CN3CCC[C@H]3CO)cc2C1=O`, in assay [1], the IC50 is 2210 nM. This IC50 is about 16-fold higher than that of the compound before.
Same read-out and setting: for `Cc1c(-c2ccccc2)cccc1N1C(=O)c2ccc(OCc3ccc(C(C)C)cc3)cc2C1=O` the value was > 10000 nM.
Consider `COc1nc(OCc2cccc(-c3ccccc3)c2C)ccc1CNCCNC(C)=O`, for which the inhibition in vivo at 10 mg/kg in assay [2] amounted to 39.8%.
